Consider three molecules from patent US20190076510A1, “PROTEIN KINASE C INHIBITION TO EXTEND TISSUE PLASMINOGEN ACTIVATOR TREATMENT FOR ISCHEMIC DISEASE” (THE REGENTS OF THE UNIVERSITY OF MICHIGAN, priority 2017, published 2019).

For data set [1], the system named is photothrombotic MCAO mice. Description: MCAO-induced cerebral vascular permeability to fluorescent-labeled 70 kDa dextran. The data set is classed as in vivo, mouse. Particulars: separate experiments.
Data set [2] concerns vascular permeability in the eye. Particulars: in vivo; cited from earlier work.
The subject of data set [3] is photothrombotic MCAO mice. The experiment in a line: Hemorrhagic transformation (ICH) after MCAO with late rtPA thrombolysis. The data set is classed as in vivo, mouse. Conditions: rtPA given 5 hours after stroke. An excerpt: Transgenic mouse lines and commercially available laboratory mouse strains (Jackson Labs) were bred using standard procedures. These strains include wild-type C57BL/6J mice, and C57BL/6J mice with diet-induced obesity. Transgenic mice include mice deficient in tissue type plasminogen activator (tPA^−/−), mice expressing the S490A mutant of occludin, and mice expressing Cre under the vascular endothelium. The numbers of mice used are necessary to maintain the breeding colonies and to obtain statistical significance in the experiments. Mouse pups are weaned at 3 weeks of age. Mice are marked with standard mouse ear tags. […] Both male and female mice are used, but are initially analyzed separately. […]
Using the Tek promoter for control of stop flox expression, however, leads to 85% of bone marrow-derived cells expressing the gene as well as endothelial cells (Genesis. 2010 September; 48(9):563-7)). […] Expression of Tg:S490AOcc^+/+ reduced permeability induced by MCAO, as measured using 70 kDa dextran labeled with Texas Red (dextran). […] Five images surrounding the infarct were taken and mean pixel intensity was determined using Imaris software, averaged for each mouse with n of at least 8 mice. […]
In addition to these studies, the effect of the PKC-β inhibition on hemorrhagic transformation was measured after tPA induction in MCAO mice. […]

In another data set the test system is acute ischemic stroke. Conditions: intravenous rtPA within 3-4.5 hours; cited from earlier work.

With `CN(C)C[C@@H]1CCn2cc(c3ccccc32)C2=C(C(=O)NC2=O)c2cn(c3ccccc23)CCO1` [LY333531], the “reduction in cerebral permeability to dextran (surgical removal of ischemic region and penumbra, dye extraction)” value in data set [1] is reported as ~30%.

Regarding `CN(C)C[C@@H]1CCn2cc(c3ccccc32)C2=C(C(=O)NC2=O)c2cn(c3ccccc23)CCO1` [Ruboxistaurin®], in data set [2], the “vascular permeability and edema in the eye” value is “shown to reduce vascular permeability and edema in the eye”. For the molecule “rtPA: recombinant tissue plasminogen activator, thrombolytic”, in data set [3], the “hemorrhagic transformation from late rtPA treatment (area of hemoglobin in serial brain sections)” value was “clear increase”. The “patients having absolute benefit” value in the data set on acute ischemic stroke is given as 90 out of 1000.
